{
  "source": "patent US9096627B2",
  "about": "“Hydroxamic acid derivatives” (Purdue Pharmaceutical Products L.P., priority 2009, dated 2015)",
  "key": {"MM1R": {"tested_on": "MM1R", "assay": "In vitro anti-proliferation assay (ATPlite luminescence)", "assay_type": "cell-based", "conditions": "MM.1R, 72 hours, 5% FBS, read-out: IC50 cell anti-proliferative assay MM1R", "method": "(§1) Cell antiproliferation was assayed by PerkinElmer ATPlite™ Luminescence Assay System. The cancer cell lines were plated at 10 k cells per well in Costar 96-well plates with different concentration of compounds for 72 hours with 5% FBS. After that, one lyophilized substrate solution vial was reconstituted by adding 5 mL of substrate buffer solution and was agitated gently until the solution is homogeneous. 50 μL of mammalian cell lysis solution was added to 100 μL of cell suspension per well of a microplate and the plate was shaken for five minutes in an orbital shaker at 700 rpm. This procedure will lyses the cells and stabilizes the ATP. Next, 50 μL substrate solution was added to the wells and microplate was shaken for five minutes in an orbital shaker at 700 rpm. Finally the luminescence was measured by a PerkinElmer TopCount® Microplate Scintillation Counter. Such assays, carried out with a range of doses of test compounds, allow the determination of an approximate IC50 value for the in vitro cell antiproliferation assay of cancer cell lines."}, "MM1S": {"tested_on": "MM1S", "assay": "In vitro anti-proliferation assay (ATPlite luminescence)", "assay_type": "cell-based", "conditions": "Homo sapiens, MM1.S, 72 hours, 5% FBS, read-out: IC50 cell anti-proliferative assay MM1S", "method": "as §1"}, "RPMI8226": {"tested_on": "RPMI8226", "assay": "In vitro anti-proliferation assay (ATPlite luminescence)", "assay_type": "cell-based", "conditions": "Homo sapiens, RPMI-8226; RPMI8226, 72 hours, 5% FBS; read-out: IC50 cell anti-proliferative assay RPMI8226", "method": "as §1"}, "HDAC-6": {"biological_target": "HDAC-6 (Homo sapiens (Human), UniProt Q9UBN7)", "sequence (Q9UBN7 whole entry, species assumed)": "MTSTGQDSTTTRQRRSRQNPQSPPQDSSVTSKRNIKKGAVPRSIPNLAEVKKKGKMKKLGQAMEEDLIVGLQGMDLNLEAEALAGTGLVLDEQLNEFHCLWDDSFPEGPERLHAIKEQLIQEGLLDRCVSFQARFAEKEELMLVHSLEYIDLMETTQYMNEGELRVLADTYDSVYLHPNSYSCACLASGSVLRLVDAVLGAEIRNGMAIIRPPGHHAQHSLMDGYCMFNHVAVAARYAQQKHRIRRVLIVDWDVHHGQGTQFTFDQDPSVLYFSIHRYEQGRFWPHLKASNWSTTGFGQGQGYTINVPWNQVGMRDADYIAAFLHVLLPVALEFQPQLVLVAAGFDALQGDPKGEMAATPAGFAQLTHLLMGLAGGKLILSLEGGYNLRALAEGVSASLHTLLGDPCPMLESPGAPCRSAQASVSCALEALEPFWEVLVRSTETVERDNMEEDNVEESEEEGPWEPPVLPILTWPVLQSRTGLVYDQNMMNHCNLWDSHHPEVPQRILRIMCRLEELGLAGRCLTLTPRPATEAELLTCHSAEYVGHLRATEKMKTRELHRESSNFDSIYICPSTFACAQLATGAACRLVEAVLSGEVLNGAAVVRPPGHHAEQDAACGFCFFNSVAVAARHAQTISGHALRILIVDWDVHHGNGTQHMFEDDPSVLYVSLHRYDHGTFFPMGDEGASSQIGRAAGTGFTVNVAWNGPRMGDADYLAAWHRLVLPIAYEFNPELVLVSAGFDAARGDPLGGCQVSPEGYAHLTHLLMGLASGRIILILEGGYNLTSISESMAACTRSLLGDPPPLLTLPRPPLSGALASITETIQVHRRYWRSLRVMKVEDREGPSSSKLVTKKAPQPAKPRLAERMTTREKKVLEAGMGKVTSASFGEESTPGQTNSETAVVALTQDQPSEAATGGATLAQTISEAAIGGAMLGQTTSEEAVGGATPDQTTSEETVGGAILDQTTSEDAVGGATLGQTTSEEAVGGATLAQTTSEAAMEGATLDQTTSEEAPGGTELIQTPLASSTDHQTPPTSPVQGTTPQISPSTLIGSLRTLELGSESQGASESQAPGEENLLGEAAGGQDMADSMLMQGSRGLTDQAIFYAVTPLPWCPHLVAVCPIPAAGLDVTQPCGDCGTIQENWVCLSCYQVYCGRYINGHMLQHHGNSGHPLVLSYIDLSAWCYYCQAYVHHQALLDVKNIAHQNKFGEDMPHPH", "assay": "Inhibition of histone deacetylase enzymatic activity (Fluor-de-Lys)", "assay_type": "biochemical", "method": "(§2) Hydroxamic acid is a well know metal-chelating agent, especially for Zn atom. […] Many of these metalloenzymes are well known important disease target, such as HDAC and MMP. […] The following protocol is used to assay the compounds of the invention against the HDAC enzymes.\n(§3) The enzyme stock solution is 4 μg/mL in buffer. The compounds are pre-incubated (2 μl in DMSO diluted to 13 μl in buffer for transfer to assay plate) with enzyme (20 μl of 4 μg/ml) for 10 minutes at room temperature (35 μl pre-incubation volume). The mixture is pre-incubated for 5 minutes at room temperature. The reaction is started by bringing the temperature to 37° C. and adding […] substrate. Total reaction volume is 50 μl. […] Such assays, carried out with a range of doses of test compounds, allow the determination of an approximate IC50 value."}, "HDAC-1": {"biological_target": "HDAC-1 (Homo sapiens (Human), UniProt Q13547)", "sequence (Q13547 whole entry, species assumed)": "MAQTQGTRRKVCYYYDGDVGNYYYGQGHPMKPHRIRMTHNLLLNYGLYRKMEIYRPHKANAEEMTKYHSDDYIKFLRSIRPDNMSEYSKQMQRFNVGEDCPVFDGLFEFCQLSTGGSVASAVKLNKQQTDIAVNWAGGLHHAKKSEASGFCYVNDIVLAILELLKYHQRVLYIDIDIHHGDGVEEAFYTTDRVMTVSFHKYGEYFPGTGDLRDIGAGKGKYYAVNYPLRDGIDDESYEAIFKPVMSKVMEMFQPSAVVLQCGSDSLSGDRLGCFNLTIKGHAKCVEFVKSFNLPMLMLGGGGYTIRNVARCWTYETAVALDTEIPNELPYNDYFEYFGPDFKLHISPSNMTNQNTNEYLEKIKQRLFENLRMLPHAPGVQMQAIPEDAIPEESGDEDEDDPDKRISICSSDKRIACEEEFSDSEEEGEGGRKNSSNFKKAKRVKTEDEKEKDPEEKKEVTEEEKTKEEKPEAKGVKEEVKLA", "assay": "Inhibition of histone deacetylase enzymatic activity (Fluor-de-Lys)", "assay_type": "biochemical", "method": "as §2, §3"}, "HDAC-3": {"biological_target": "HDAC-3 (Homo sapiens (Human), UniProt O15379)", "sequence (O15379 whole entry, looked up, species assumed)": "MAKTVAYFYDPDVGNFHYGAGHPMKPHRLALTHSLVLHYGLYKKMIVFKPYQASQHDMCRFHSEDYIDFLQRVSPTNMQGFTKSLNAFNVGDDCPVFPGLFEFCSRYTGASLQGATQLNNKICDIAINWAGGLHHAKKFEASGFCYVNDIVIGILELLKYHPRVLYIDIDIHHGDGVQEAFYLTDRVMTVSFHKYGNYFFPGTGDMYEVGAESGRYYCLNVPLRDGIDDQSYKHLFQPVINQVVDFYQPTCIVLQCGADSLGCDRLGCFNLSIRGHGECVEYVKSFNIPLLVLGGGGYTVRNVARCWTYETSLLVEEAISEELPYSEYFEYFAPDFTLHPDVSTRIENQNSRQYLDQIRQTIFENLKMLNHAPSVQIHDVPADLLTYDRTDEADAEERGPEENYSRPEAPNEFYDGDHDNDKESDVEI", "sequence (Q9Y618 whole entry partner, looked up, species assumed)": "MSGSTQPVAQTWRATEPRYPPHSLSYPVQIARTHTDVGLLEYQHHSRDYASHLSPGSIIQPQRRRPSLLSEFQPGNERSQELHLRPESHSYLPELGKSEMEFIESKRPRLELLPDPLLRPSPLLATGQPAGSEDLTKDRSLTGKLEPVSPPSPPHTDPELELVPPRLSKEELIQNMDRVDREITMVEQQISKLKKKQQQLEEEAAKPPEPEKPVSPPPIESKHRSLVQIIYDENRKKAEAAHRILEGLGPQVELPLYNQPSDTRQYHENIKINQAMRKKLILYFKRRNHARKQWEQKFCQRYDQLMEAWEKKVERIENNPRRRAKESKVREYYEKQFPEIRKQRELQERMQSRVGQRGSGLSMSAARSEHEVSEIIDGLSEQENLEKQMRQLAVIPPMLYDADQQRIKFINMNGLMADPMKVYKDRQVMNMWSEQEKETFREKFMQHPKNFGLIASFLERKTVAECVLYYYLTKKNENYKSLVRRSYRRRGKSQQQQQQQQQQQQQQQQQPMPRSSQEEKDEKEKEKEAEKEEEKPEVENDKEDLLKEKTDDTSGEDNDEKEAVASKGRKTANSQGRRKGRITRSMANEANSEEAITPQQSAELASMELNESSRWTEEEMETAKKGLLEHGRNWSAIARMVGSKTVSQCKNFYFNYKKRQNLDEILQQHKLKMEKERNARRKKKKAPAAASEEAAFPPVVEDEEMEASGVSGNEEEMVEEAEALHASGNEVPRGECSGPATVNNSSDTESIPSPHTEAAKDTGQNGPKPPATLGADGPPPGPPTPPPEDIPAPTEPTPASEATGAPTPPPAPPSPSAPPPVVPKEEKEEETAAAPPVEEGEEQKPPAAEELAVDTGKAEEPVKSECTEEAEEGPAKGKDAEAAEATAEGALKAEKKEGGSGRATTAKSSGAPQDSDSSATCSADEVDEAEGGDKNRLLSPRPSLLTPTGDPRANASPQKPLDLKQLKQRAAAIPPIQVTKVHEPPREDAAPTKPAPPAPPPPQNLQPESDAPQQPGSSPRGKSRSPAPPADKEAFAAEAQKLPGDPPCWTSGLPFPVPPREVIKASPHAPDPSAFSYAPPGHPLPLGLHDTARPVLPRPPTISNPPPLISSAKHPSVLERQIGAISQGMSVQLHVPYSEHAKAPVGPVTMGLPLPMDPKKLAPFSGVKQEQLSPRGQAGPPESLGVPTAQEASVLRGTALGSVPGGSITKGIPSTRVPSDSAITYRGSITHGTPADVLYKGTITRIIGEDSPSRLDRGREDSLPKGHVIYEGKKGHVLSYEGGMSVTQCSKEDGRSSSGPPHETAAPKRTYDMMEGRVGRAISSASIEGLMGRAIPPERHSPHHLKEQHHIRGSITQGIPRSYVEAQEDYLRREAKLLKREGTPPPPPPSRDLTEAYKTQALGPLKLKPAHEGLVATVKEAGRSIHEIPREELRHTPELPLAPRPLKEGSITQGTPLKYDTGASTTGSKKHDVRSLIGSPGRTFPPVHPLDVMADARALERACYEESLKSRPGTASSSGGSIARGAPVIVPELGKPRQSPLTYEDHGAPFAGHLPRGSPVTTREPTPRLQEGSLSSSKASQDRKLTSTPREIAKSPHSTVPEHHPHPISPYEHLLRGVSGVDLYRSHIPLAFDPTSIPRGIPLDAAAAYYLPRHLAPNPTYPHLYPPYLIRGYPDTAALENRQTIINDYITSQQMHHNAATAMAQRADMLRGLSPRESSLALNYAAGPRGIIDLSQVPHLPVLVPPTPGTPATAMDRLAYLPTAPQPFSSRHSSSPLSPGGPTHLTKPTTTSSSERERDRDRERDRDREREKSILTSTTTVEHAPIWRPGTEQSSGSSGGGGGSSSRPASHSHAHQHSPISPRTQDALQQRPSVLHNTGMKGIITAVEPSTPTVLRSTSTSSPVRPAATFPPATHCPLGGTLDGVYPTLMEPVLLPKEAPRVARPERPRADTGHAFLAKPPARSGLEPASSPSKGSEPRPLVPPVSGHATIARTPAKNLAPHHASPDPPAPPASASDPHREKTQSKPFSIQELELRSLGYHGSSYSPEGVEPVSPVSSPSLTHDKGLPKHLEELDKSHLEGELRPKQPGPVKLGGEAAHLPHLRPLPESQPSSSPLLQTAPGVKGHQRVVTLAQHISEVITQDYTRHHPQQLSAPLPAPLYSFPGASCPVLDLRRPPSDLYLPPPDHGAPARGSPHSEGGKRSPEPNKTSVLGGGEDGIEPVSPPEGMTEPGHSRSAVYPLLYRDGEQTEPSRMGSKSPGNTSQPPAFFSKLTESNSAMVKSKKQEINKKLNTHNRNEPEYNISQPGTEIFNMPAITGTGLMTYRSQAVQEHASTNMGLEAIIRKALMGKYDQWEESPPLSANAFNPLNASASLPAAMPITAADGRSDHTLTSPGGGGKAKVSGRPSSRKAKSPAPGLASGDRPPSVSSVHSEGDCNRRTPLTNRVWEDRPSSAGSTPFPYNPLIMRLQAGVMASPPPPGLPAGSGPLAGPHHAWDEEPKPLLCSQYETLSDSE", "assay": "Inhibition of histone deacetylase enzymatic activity (Fluor-de-Lys)", "assay_type": "biochemical", "method": "as §2, §3"}, "HDAC-10": {"biological_target": "HDAC-10 (Homo sapiens (Human), UniProt Q969S8)", "assay": "Inhibition of histone deacetylase enzymatic activity (Fluor-de-Lys)", "assay_type": "biochemical", "method": "as §2, §3"}, "HDAC-8": {"biological_target": "HDAC-8 (Homo sapiens (Human), UniProt Q9BY41)", "assay": "Inhibition of histone deacetylase enzymatic activity (Fluor-de-Lys)", "assay_type": "biochemical", "method": "as §2, §3"}, "HDAC-2": {"biological_target": "HDAC-2 (Homo sapiens (Human), UniProt Q92769)", "sequence (Q92769 whole entry, species assumed)": "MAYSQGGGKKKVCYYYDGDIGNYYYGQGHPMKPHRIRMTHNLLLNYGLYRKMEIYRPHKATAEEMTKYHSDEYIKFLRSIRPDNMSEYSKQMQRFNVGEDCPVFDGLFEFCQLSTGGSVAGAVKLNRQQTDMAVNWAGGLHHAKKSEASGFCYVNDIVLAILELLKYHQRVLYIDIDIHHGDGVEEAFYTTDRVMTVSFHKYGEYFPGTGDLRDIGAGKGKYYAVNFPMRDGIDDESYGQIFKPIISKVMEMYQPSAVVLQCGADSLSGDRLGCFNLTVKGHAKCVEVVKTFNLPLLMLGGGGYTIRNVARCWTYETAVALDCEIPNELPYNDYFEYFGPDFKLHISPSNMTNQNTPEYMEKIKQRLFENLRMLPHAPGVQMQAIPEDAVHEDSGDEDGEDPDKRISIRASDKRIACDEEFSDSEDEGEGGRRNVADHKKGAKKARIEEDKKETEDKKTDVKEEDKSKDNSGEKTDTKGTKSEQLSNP", "assay": "biochemical", "assay_type": "biochemical", "method": "as §2, §3"}},
  "data": [
    {"smiles": "Cn1c(CCCC(=O)O)nc2cc(N(CCCl)CCCl)ccc21", "note": "[Bendamustine]", "values": [
      {"measurement": "IC50", "setting": "MM1R", "result": 100000, "unit": "nM"},
      {"measurement": "IC50", "setting": "MM1S", "result": 119000, "unit": "nM"},
      {"measurement": "IC50", "setting": "RPMI8226", "result": 400000, "unit": "nM"},
      {"measurement": "HDAC IC50, HDAC-6 (result in words)", "setting": "HDAC-6; HDAC-6, Bendamustine, unit not given", "result": "No activity"},
      {"measurement": "HDAC IC50, HDAC-1 (result in words)", "setting": "HDAC-1; Bendamustine, unit not given", "result": "No activity"},
      {"measurement": "HDAC IC50, HDAC-3 (result in words)", "setting": "HDAC-3; Bendamustine, unit not given", "result": "No activity"},
      {"measurement": "HDAC IC50, HDAC-10 (result in words)", "setting": "HDAC-10; HDAC-10, Bendamustine, unit not given", "result": "No activity"},
      {"measurement": "HDAC IC50, HDAC-8 (result in words)", "setting": "HDAC-8; HDAC-8, Bendamustine, unit not given", "result": "No activity"},
      {"measurement": "HDAC IC50, HDAC-2 (result in words)", "setting": "HDAC-2", "result": "No activity"}
    ]},
    {"smiles": "Cn1c(CCCCCCC(=O)NO)nc2cc(N(CCCl)CCCl)ccc21", "note": "[CY190602]", "values": [
      {"measurement": "IC50", "setting": "MM1R", "result": 2660, "unit": "nM"},
      {"measurement": "IC50", "setting": "MM1S", "result": 1600, "unit": "nM"},
      {"measurement": "IC50", "setting": "RPMI8226", "result": 4160, "unit": "nM"},
      {"measurement": "IC50", "setting": "HDAC-6", "result": 6, "unit": "nM"},
      {"measurement": "IC50", "setting": "HDAC-1", "result": 17, "unit": "nM"},
      {"measurement": "IC50", "setting": "HDAC-3", "result": 25, "unit": "nM"},
      {"measurement": "IC50", "setting": "HDAC-10", "result": 72, "unit": "nM"},
      {"measurement": "IC50", "setting": "HDAC-8", "result": 107, "unit": "nM"},
      {"measurement": "IC50", "setting": "HDAC-2", "result": 9, "unit": "nM"}
    ]}
  ]
}
